Reference: patent US20240408119A1, “DELIVERY OF THERAPEUTIC ALKALOID COMPOUNDS” (priority 2022, published 2024)

Assay: Plasma Stability Assay (Example A3), human plasma
Assay type: in vitro ADME
Settings: prodrug remaining, 10 μM, 37° C.
Text: The data is represented in the table below.

COc1ccc([C@@]23CCC(OP4(=O)OCC(C)(C)CO4)=C[C@@H]2N(C)CC3)cc1OC [Compound 323, 2-[[(3aS,7aS)-3a-(3,4-dimethoxyphenyl)-1-methyl-3,4,5,7a-tetrahydro-2H-indol-6-yl]oxy]-5,5-dimethyl-1,3,2λ^5-dioxaphosphinane 2-oxide]
Human Plasma Prodrug (%) (0 min): 100.00%
Human Plasma Prodrug (%) (10 min): 86.9%
Human Plasma Prodrug (%) (30 min): 70.8%
Human Plasma Prodrug (%) (60 min): 52.7%
Human Plasma Prodrug (%) (120 min): 27.0%
Human Plasma Prodrug (%) (240 min): 9.3%
